In patent publication US6737383B1, “Herbicidal oxadiazolidines” (priority 1999, dated 2004):

What was measured:
bedstraw = experiment: Test B pre/postemergence bedstraw; assay type: in vivo, Galium aparine
Method in brief: (§1)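 Test chemicals in a non-phytotoxic solvent mixture with surfactant were sprayed preemergence onto planted seeds and postemergence onto plants 2 to 18 cm tall (1- to 4-leaf stage). After twelve to sixteen days in a greenhouse, injury was visually rated against untreated controls from 0 (no effect) to 10 (complete control).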

blackgrass = experiment: Test B pre/postemergence blackgrass; assay type: in vivo, Alopecurus myosuroides
Method in brief: as §1

surinam grass = experiment: Test B pre/postemergence surinam grass; assay type: in vivo, Brachiaria decumbens
Method in brief: as §1

cocklebur = experiment: Test B pre/postemergence cocklebur; assay type: in vivo, Xanthium strumarium
Method in brief: as §1

corn = experiment: Test B pre/postemergence corn; assay type: in vivo, Zea mays
Method in brief: as §1

giant foxtail = experiment: Test B pre/postemergence giant foxtail; assay type: in vivo, Setaria faberii
Method in brief: as §1

morningglory = experiment: Test B pre/postemergence morningglory; assay type: in vivo, Ipomoea hederacea
Method in brief: as §1

pigweed = experiment: Test B pre/postemergence pigweed; assay type: in vivo, Amaranthus retroflexus
Method in brief: as §1

rape = experiment: Test B pre/postemergence rape; assay type: in vivo, Brassica napus
Method in brief: as §1

soybean = experiment: Test B pre/postemergence soybean; assay type: in vivo, Glycine max
Method in brief: as §1

sugar beet = experiment: Test B pre/postemergence sugar beet; assay type: in vivo, Beta vulgaris
Method in brief: as §1

velvetleaf = experiment: Test B pre/postemergence velvetleaf; assay type: in vivo, Abutilon theophrasti
Method in brief: as §1

purple nutsedge = experiment: Test B pre/postemergence purple nutsedge; assay type: in vivo, Cyperus rotundus
Method in brief: as §1

smallflower flatsedge = experiment: Test B flood test smallflower flatsedge; assay type: in vivo, Cyperus difformis
Method in brief: (§2)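 Read-out is a visual response score from 0 (no effect) to 10 (complete control), assigned by comparison with untreated controls. Treatment was applied at the 2-leaf stage, and plants stayed in the greenhouse for twelve to sixteen days before scoring.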

duck salad = experiment: Test B flood test duck salad; assay type: in vivo, Heteranthera limosa
Method in brief: as §2

bamyardgrass = experiment: Test B flood test barnyardgrass; assay type: in vivo, Echinochloa crus-galli
Method in brief: as §2

[1] = Preemergence, Rate 62 g/ha, scale of 0 to 10 where 0 is no effect and 10 is complete control
[2] = Preemergence, Rate 250 g/ha, scale of 0 to 10 where 0 is no effect and 10 is complete control
[3] = Preemergence, Rate 500 g/ha, scale of 0 to 10 where 0 is no effect and 10 is complete control
[4] = Rate 62 g/ha, Postemergence, scale 0 to 10 (0 no effect, 10 complete control)
[5] = Rate 125 g/ha, Postemergence, scale of 0 to 10 where 0 is no effect and 10 is complete control
[6] = Rate 250 g/ha, Postemergence, scale of 0 to 10 where 0 is no effect and 10 is complete control
[7] = Rate 500 g/ha, Postemergence, scale 0 to 10, 0 no effect, 10 complete control
[8] = Rate 62 g/ha, headed Pre-emergence (flood test species), scale 0 to 10 (0 no effect, 10 complete control)
[9] = Rate 125 g/ha, Pre-emergence, flood test species, scale 0 to 10 where 0 is no effect and 10 is complete control
[10] = Rate 250 g/ha, Pre-emergence, flood-test species, scale 0 to 10, 0 is no effect, 10 is complete control
[11] = Rate 500 g/ha, Pre-emergence, flood test species, scale 0 to 10 (0 no effect, 10 complete control)

CC(C)n1c(=O)on(C(=O)N(c2ccc(Cl)cc2Cl)C2CCC2)c1=O [Compound 319]
Bedstraw plant response rating (bedstraw; [1]): 0
Bedstraw plant response rating (0 to 10 scale) (bedstraw; Preemergence, Rate 125 g/ha): 0
Bedstraw plant response rating (bedstraw; [2]): 0
Bedstraw plant response rating (bedstraw; [3]): 7
Bedstraw plant response rating (bedstraw; [4]): 0
Bedstraw plant response rating (bedstraw; [5]): 0
Blackgrass plant response rating (blackgrass; [1]): 0
Blackgrass plant response rating (0 to 10 scale) (blackgrass; Preemergence, Rate 125 g/ha): 0
Blackgrass plant response rating (blackgrass; [2]): 2
Blackgrass plant response rating (blackgrass; [3]): 4
Blackgrass plant response rating (blackgrass; [4]): 0
Blackgrass plant response rating (blackgrass; [5]): 0
Plant response rating, Blackgrass (blackgrass; [6]): 0
Blackgrass plant response rating (blackgrass; [7]): 3
B. signalgrass plant response rating (surinam grass; [1]): 0
B. signalgrass plant response rating (0 to 10 scale, 0 is no effect, 10 is complete control) (surinam grass; Preemergence, Rate 125 g/ha): 0
B. signalgrass plant response rating (surinam grass; [2]): 2
B. signalgrass plant response rating (surinam grass; [3]): 3
B. signalgrass plant response rating (surinam grass; [4]): 0
B. signalgrass plant response rating (surinam grass; [5]): 0
Plant response rating, B. signalgrass (surinam grass; [6]): 0
B. signalgrass plant response rating (surinam grass; [7]): 0
Cocklebur plant response rating (cocklebur; [1]): 0
Cocklebur plant response rating (0 to 10 scale) (cocklebur; Preemergence, Rate 125 g/ha): 0
Cocklebur plant response rating (cocklebur; [2]): 0
Cocklebur plant response rating (cocklebur; [3]): 0
Cocklebur plant response rating (cocklebur; [4]): 0
Cocklebur plant response rating (cocklebur; [5]): 0
Plant response rating, Cocklebur (cocklebur; [6]): 0
Cocklebur plant response rating (cocklebur; [7]): 0
Corn plant response rating (corn; [1]): 0
Corn plant response rating (0 to 10 scale) (corn; Preemergence, Rate 125 g/ha): 0
Corn plant response rating (corn; [2]): 0
Corn plant response rating (corn; [3]): 0
Corn plant response rating (corn; [4]): 0
Corn plant response rating (corn; [5]): 0
Plant response rating, Corn (corn; [6]): 0
Corn plant response rating (corn; [7]): 0
Giant foxtail plant response rating (giant foxtail; [1]): 6
Giant foxtail plant response rating (0 to 10 scale) (giant foxtail; Preemergence, Rate 125 g/ha): 7
Giant foxtail plant response rating (giant foxtail; [2]): 9
Giant foxtail plant response rating (giant foxtail; [3]): 9
Giant foxtail plant response rating (giant foxtail; [4]): 0
Giant foxtail plant response rating (giant foxtail; [5]): 0
Plant response rating, Giant foxtail (giant foxtail; [6]): 0
Morningglory plant response rating (morningglory; [1]): 0
Morningglory plant response rating (0 to 10 scale) (morningglory; Preemergence, Rate 125 g/ha): 0
Morningglory plant response rating (morningglory; [2]): 0
Morningglory plant response rating (morningglory; [3]): 0
Morningglory plant response rating (morningglory; [4]): 2
Morningglory plant response rating (morningglory; [5]): 2
Plant response rating, Morningglory (morningglory; [6]): 4
Redroot pigweed plant response rating (pigweed; [1]): 0
Redroot pigweed plant response rating (0 to 10 scale) (pigweed; Preemergence, Rate 125 g/ha): 0
Redroot pigweed plant response rating (pigweed; [2]): 0
Redroot pigweed plant response rating (pigweed; [3]): 0
Redroot pigweed plant response rating (pigweed; [4]): 0
Redroot pigweed plant response rating (pigweed; [5]): 0
Plant response rating, Redroot pigweed (pigweed; [6]): 0
Rape plant response rating (rape; [1]): 0
Rape plant response rating (0 to 10 scale) (rape; Preemergence, Rate 125 g/ha): 0
Rape plant response rating (rape; [2]): 0
Rape plant response rating (rape; [3]): 0
Rape plant response rating (rape; [4]): 0
Rape plant response rating (rape; [5]): 0
Plant response rating, Rape (rape; [6]): 0
Soybean plant response rating (soybean; [1]): 0
Soybean plant response rating (0 to 10 scale) (soybean; Preemergence, Rate 125 g/ha): 0
Soybean plant response rating (soybean; [2]): 0
Soybean plant response rating (soybean; [3]): 0
Soybean plant response rating (soybean; [4]): 0
Soybean plant response rating (soybean; [5]): 1
Plant response rating, Soybean (soybean; [6]): 1
Sugarbeets plant response rating (sugar beet; [1]): 0
Sugarbeets plant response rating (0 to 10 scale) (sugar beet; Preemergence, Rate 125 g/ha): 0
Sugarbeets plant response rating (sugar beet; [2]): 0
Sugarbeets plant response rating (sugar beet; [3]): 0
Sugarbeets plant response rating (sugar beet; [4]): 0
Sugarbeets plant response rating (sugar beet; [5]): 0
Plant response rating, Sugarbeets (sugar beet; [6]): 0
Velvetleaf plant response rating (velvetleaf; [1]): 0
Velvetleaf plant response rating (0 to 10 scale) (velvetleaf; Preemergence, Rate 125 g/ha): 0
Velvetleaf plant response rating (velvetleaf; [2]): 0
Velvetleaf plant response rating (velvetleaf; [3]): 0
Velvetleaf plant response rating (velvetleaf; [4]): 0
Velvetleaf plant response rating (velvetleaf; [5]): 0
Plant response rating, Velvetleaf (velvetleaf; [6]): 0
Nutsedge plant response rating (purple nutsedge; [1]): 0
Nutsedge plant response rating (0 to 10 scale) (purple nutsedge; Preemergence, Rate 125 g/ha): 0
Nutsedge plant response rating (purple nutsedge; [2]): 0
Nutsedge plant response rating (purple nutsedge; [3]): 0
Nutsedge plant response rating (purple nutsedge; [4]): 0
Nutsedge plant response rating (purple nutsedge; [5]): 0
Plant response rating, Nutsedge (purple nutsedge; [6]): 0
S. Flatsedge plant response rating (smallflower flatsedge; [8]): 0
S. Flatsedge plant response rating (smallflower flatsedge; [9]): 0
S. Flatsedge plant response rating (smallflower flatsedge; [10]): 0
S. Flatsedge plant response rating (smallflower flatsedge; [11]): 0
Ducksalad plant response rating (duck salad; [8]): 0
Ducksalad plant response rating (duck salad; [9]): 0
Ducksalad plant response rating (duck salad; [10]): 0
Ducksalad plant response rating (duck salad; [11]): 0
Barnyardgrass plant response rating (bamyardgrass; [8]): 0
Barnyardgrass plant response rating (bamyardgrass; [9]): 0
Barnyardgrass plant response rating (bamyardgrass; [10]): 0
Barnyardgrass plant response rating (bamyardgrass; [11]): 2
